Reference: US11419916B2, “Methods and compositions for inducing differentiation of human brown adipocyte progenitors” (Energesis Pharmaceuticals, Inc., priority 2014, dated 2022)
Counter-ions that a name gives are not always drawn.

B1: CNTF: ciliary neurotrophic factor (protein, UniProt P26441 1-200, looked up)
Ciliary neurotrophic factor: MAFTEHSPLTPHRRDLCSRSIWLARKIRSDLTALTESYVKHQGLNKNINLDSADGMPVASTDQWSELTEAERLQENLQAYRTFHVLLARLLEDQQVHFTPTEGDFHQAIHTLLLQVAAFAYQIEELMILLEYKIPRNEADGMPINVGDGGLFEKKLWGLKVLQELSQWTVRSIHDLRFISSHQTGIPARGSHYIANNKKM
B2: FGF10: fibroblast growth factor-10, keratinocyte growth factor-2 (protein, UniProt O15520 38-208, looked up)
Fibroblast growth factor 10: QALGQDMVSPEATNSSSSSFSSPSSAGRHVRSYNHLQGDVRWRKLFSFTKYFLKIEKNGKVSGTKKENCPYSILEITSVEIGVVAVKAINSNYYLAMNKKGKLYGSKEFNNDCKLKERIEENGYNTYASFNWQHNGRQMYVALNGKGAPRRGQKTRRKNTSAHFLPMVVHS
B3: FGF13: fibroblast growth factor-13 (protein, UniProt Q92913 1-245, looked up)
Fibroblast growth factor 13: MAAAIASSLIRQKRQAREREKSNACKCVSSPSKGKTSCDKNKLNVFSRVKLFGSKKRRRRRPEPQLKGIVTKLYSRQGYHLQLQADGTIDGTKDEDSTYTLFNLIPVGLRVVAIQGVQTKLYLAMNSEGYLYTSELFTPECKFKESVFENYYVTYSSMIYRQQQSGRGWYLGLNKEGEIMKGNHVKKNKPAAHFLPKPLKVAMYKEPSLHDLTEFSRSGSGTPTKSRSVSGVLNGGKSMSHNEST
B4: BDNF: brain-derived neurotrophic factor (protein, UniProt P23560 19-247, looked up)
Neurotrophic factor BDNF …: APMKEANIRGQGGLAYPGVRTHGTLESVNGPKAGSRGLTSLADTFEHVIEELLDEDQKVRPNEENNKDADLYTSRVMLSSQVPLEPPLLFLLEEYKNYLDAANMSMRVRRHSDPARRGELSVCDSISEWVTAADKKTAVDMSGGTVTVLEKVPVSKGQLKQYFYETKCNPMGYTKEGCRGIDKRHWNSQCRTTQSYVRALTMDSKKRIGWRFIRIDTSCVCTLTIKRGR
B5: FGF7: fibroblast growth factor-7, keratinocyte growth factor (protein, UniProt P21781 32-194, looked up)
Fibroblast growth factor 7: CNDMTPEQMATNVNCSSPERHTRSYDYMEGGDIRVRRLFCRTQWYLRIDKRGKVKGTQEMKNNYNIMEIRTVAVGIVAIKGVESEFYLAMNKEGKLYAKKECNEDCNFKELILENHYNTYASAKWTHNGGEMFVALNQKGIPVRGKKTKKEQKTAHFLPMAIT

What was measured:
[1] = test system: CD31-cells (BAT progenitor cells isolated from human skeletal muscle); assay: Quantification of UCP1 and PPARγ2 mRNA (normalized to cyclophilin A) by multiplexed TaqMan real-time PCR to quantify differentiation into brown adipocytes; format: cell-based
Description: A robust method, previously disclosed in WO2013071063 and incorporated herein by reference, was used for detection of CD31-cell differentiation into brown adipocytes by simultaneously quantifying mRNA species corresponding to the brown adipocyte marker UCP1, the adipocyte marker PPARγ2, and the “housekeeping” gene cyclophilin A which was used as the internal control.
This method permits analysis of a large number of samples to identify agents that enhance the differentiation of CD31-cells into brown adipocytes. When differentiated into brown adipocytes CD31-cells express much higher levels of UCP1 and PPARγ2 mRNA for a given level of cyclophilin A. UCP1 and PPARγ2 mRNA levels normalized to cyclophilin A mRNA levels give an indication of the level of differentiation of the CD31-cells into brown adipocytes, independent of the total number of cells in the sample.
Quantification of UCP1, PPARγ2 and cyclophilin A mRNA by multiplexed TaqMan real-time PCR was thus used to quantify differentiation of the CD31-cells into brown adipocytes.
Cells were seeded at 10,000 per cm^2 in 0.2% gelatin coated plates (48-well tissue culture, Chemglass #CLS-3500-048), cultured until confluency (2-4 days) at 37° C. in Endothelial cell growth medium-2 (EGM2) (BulletKit growth medium, Lonza #CC-3162) and until differentiation (10-16 more days). After 2 or 3 days in EGM2 medium the cells were induced to differentiate by replacing the medium with an adipogenic medium, which is a modification of the adipogenic medium described by Rodriguez et al. and may or may not contain a differentiation inducing agent (e.g., PPARγ agonist). […] If rosiglitazone is used as a differentiation-inducing agent, it can be supplied at 1 μM or any other concentration sufficient to induce differentiation of BAT progenitor cells into adipocytes.
Total RNA was prepared from cells using PureLink RNA Isolation Kit (Invitrogen #12183-016) First strand cDNA were synthesized using the High Capacity cDNA Reverse Transcription kit (Applied Biosystems, Foster City, Calif.) and random primers.
Quantitative real-time PCR was performed using an Applied Biosystems StepOnePlus™ instrument, TaqMan Gene Expression Master Mix (Applied Biosystems #4369016), and custom TaqMan gene expression probes and primers for human uncoupling protein-1 “UCP1” (GenBank NM_021833) and for human peptidylprolyl isomerase A “cyclophilin A” (GenBank NM_021130).
Cyclophilin A was used as a control to account for any variations due to the efficiency of reverse transcription. Arbitrary units were determined by normalizing target mRNA levels to cyclophilin A mRNA levels (based on Cts).

[2] = test system: CD31-cells (brown adipocyte progenitors); assay: Quantification of UCP1 protein by immunohistochemistry (IHC); format: cell-based, human; details: total intensity of UCP1 signal normalized to cell number
Method: Differentiation of brown adipocyte progenitors into brown adipocytes can be detected through quantification of UCP1 protein by immunohistochemistry (IHC).
Culturing and differentiation of CD31-cells into brown adipocytes were performed using adipogenic differentiation medium lacking (Minimal Differentiation Medium, MDM) or containing 1 μM rosiglitazone (Reference Differentiation Medium, RDM). After 15 days of differentiation cells were fixed with 4% Paraformaldehyde PBS pH 7.4, and incubated with a UCP1 antibody (Abcam ab23841) and Alexafluor 488 goat anti-rabbit antibody to quantify relative UCP1 levels (green) according to standard protocols. Prior to fixation of cells, nuclei were labeled with 5 μM DAPI (blue) for 10 minutes. Each treatment condition was evaluated in triplicate in a 96-well plate corresponding to approximately 360-480 cells for each data point in total. The InCell 1000 Developer Toolbox software was used to develop an automated cell detection script to measure UCP1 signal intensity, using the nuclei and cytoplasm detection algorithms. As a readout, total intensity of UCP1 signal within the cell was used, normalized to cell number.

Molecule	differentiation of BAT progenitor cells into brown adipocytes and/or expression of UCP1, PPARγ2 mRNA [1]	UCP1 protein signal (IHC), differentiation of brown adipocyte progenitors into brown adipocytes [2]
CCCCC[C@H](O)/C=C/[C@@H]1[C@@H](C/C=C\CCCC(=O)O)[C@H](O)C[C@H]1O [9β,11α-prostaglandin F2]	promote the differentiation of BAT progenitor cells into brown adipocytes and/or induce the expression of UCP1	
COc1cc2c(c(OC)c1OC)-c1ccc(OC)c(=O)cc1[C@@H](NC(C)=O)CC2 [Colchicine]		identified using this technique
NC(N)=Nc1nc(CSCCC(N)=NS(N)(=O)=O)cs1 [Famotidine]		identified using this technique
N=C(N)NC(=O)Cc1c(Cl)cccc1Cl [Guanfacine hydrochloride]		identified using this technique
CN(C)C(=N)N=C(N)N [Metformin]		identified using this technique
COC(=O)[C@H]1[C@H]2C[C@@H]3c4[nH]c5cc(OC)ccc5c4CCN3C[C@H]2C[C@@H](OC(=O)c2cc(OC)c(OC)c(OC)c2)[C@@H]1OC [Reserpine]		identified using this technique
O=C(CCCN1CCC2(CC1)C(=O)NCN2c1ccccc1)c1ccc(F)cc1 [Spiperone]		identified using this technique
CCSc1ccc2c(c1)N(CCCN1CCN(C)CC1)c1ccccc1S2 [Thiethylperazine]		identified using this technique
O=C1NC(c2cccc([N+](=O)[O-])c2)=CCN1c1ccccc1O [icilin]	promote the differentiation of BAT progenitor cells into brown adipocytes and/or induce the expression of UCP1	
CC1CCC(C(C)C)C(O)C1 (stereo not drawn) [menthol]	promote the differentiation of BAT progenitor cells into brown adipocytes and/or induce the expression of UCP1	
CC1(C)CC[C@]2(C(=O)O)CC[C@]3(C)C(=CC[C@@H]4[C@@]5(C)CC[C@H](O)C(C)(C)[C@@H]5CC[C@]43C)[C@@H]2C1 [oleanolic acid]	promote the differentiation of BAT progenitor cells into brown adipocytes and/or induce the expression of UCP1	
COC(=O)N(C)c1c(N)nc(-c2nn(Cc3ccccc3F)c3ncccc23)nc1N [riociguat]	promote the differentiation of BAT progenitor cells into brown adipocytes and/or induce the expression of UCP1	
COc1ccc(C2CNC(=O)C2)cc1OC1CCCC1 (stereo not drawn) [rolipram]	promote the differentiation of BAT progenitor cells into brown adipocytes and/or induce the expression of UCP1	
CN/C(=N\c1ccc(C2=NNC(=O)CC2C)cc1)NC#N (stereo not drawn) [siguazodan]	promote the differentiation of BAT progenitor cells into brown adipocytes and/or induce the expression of UCP1	
BNP: b-type natriuretic peptide	promote the differentiation of BAT progenitor cells into brown adipocytes and/or induce the expression of UCP1	
PACAP Propeptide of 55 aa (aa 25-79): peptide derived from the Pituitary adenylate cyclase-activating polypeptide (PACAP, ADCYAP1, UniProt P18509) gene (SPAAAGLRFPGIRPEEEAYGEDGNPLPDFDGSEPPGAGSPASAPRAAAAWYRPAG; UniProt P18509 25-79, looked up, fragment)	promote the differentiation of BAT progenitor cells into brown adipocytes and/or induce the expression of UCP1	
bombesin	promote the differentiation of BAT progenitor cells into brown adipocytes and/or induce the expression of UCP1	
interleukin-6 (IL-6): Interleukin-6, UniProt P05231	promote the differentiation of BAT progenitor cells into brown adipocytes and/or induce the expression of UCP1	
orexin B: orexin B	promote the differentiation of BAT progenitor cells into brown adipocytes and/or induce the expression of UCP1	
B1	promote the differentiation of BAT progenitor cells into brown adipocytes and/or induce the expression of UCP1	
B2	promote the differentiation of BAT progenitor cells into brown adipocytes and/or induce the expression of UCP1	
B3	promote the differentiation of BAT progenitor cells into brown adipocytes and/or induce the expression of UCP1	
B4	promote the differentiation of BAT progenitor cells into brown adipocytes and/or induce the expression of UCP1	
B5	promote the differentiation of BAT progenitor cells into brown adipocytes and/or induce the expression of UCP1	
